One experiment concerns PcaU1.2. Nature of the experiment: Specificity evaluation of PcaU1.2 sensor against similar aromatic molecules. The class given is cell-based, P. putida. As to conditions: relative to PCA response. The procedure:
For specificity evaluation of the biosensor, PcaU1.2 was tested against molecules with similar functional groups, namely benzoate, 4-hydroxybenzoate (4HB), and catechol. The tested molecules were relatively smaller than PCA, to eliminate any rejection of the molecule from the binding pocket due to steric hindrance.

In experiment [1] the test system is PobR-DM. Nature of the experiment: Whole cell biosensing of 4HB and benzoate with PobR-DM sensor plasmid. In kind it is cell-based. As to conditions: P. putida with pPobR. Here is the method: Whole cell biosensing of 4HB and benzoate: For 4HB sensing activity of the whole cell biosensor, a small scoop of pPobR transformed P. putida cells from a streaked plate or a glycerol stock was grown overnight as a seed culture. The overnight saturated seed culture was then diluted 100-fold in fresh growth medium, grown for 5-6 h at 30° C. to achieve an OD600 of ˜0.6, then distributed in deep 96-well blocks in a volume of 300-500 μL and induced with varying concentrations of 4HB or benzoate. The cultures were grown overnight (14-16 h) under vigorous shaking in a deep-well shaker (Taitec BioShakerM-BR-022UP). The cultures were diluted 100-fold in phosphate-buffered saline (PBS) with 1% sucrose and analyzed using an LSR II flow cytometer (BD Biosciences) or Accuri C6 flow cytometer (BD Biosciences) with standard settings for measurement of GFP fluorescence (ex 488 nm, em ˜530/30 nm). The arithmetic mean fluorescence value of ˜100,000 cells tightly gated based on forward and side scatter (FSC vs SSC) was used for a dose-response plot. Same protocol was followed for comparison of UbiC clones.

For the next experiment, the target named is UbiC (Escherichia coli, UniProt P26602). The conditions noted are these: cited from earlier work.
UbiC, sequence (P26602 whole entry): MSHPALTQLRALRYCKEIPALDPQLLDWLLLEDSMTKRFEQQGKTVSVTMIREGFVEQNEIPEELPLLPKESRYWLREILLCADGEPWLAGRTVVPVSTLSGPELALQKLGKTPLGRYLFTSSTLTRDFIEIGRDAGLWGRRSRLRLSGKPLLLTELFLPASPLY
In experiment [2] the test system is PobR-DM. The conditions noted are these: protocatechuate only at 1000-fold greater concentration than 4HB; cited from earlier work.

Structures are written as SMILES.

Results on five compounds are retold here after patent US11739318B1, “Modified biosensors and biocatalysts and methods of use” (priority 2017, dated 2023).

On to `O=C(O)c1ccc(O)cc1` [4HB, 4-hydroxybenzoic acid], for which the “activation of the PcaU1.2 sensor” value in the experiment on PcaU1.2 is listed as “Low but measurable activation”.

The Ki is the dissociation constant of the complex between target and ligand, obtained from inhibition or displacement. Turning to `O=C(O)c1ccccc1` [benzoate], in the experiment with PcaU1.2, the “activation of the PcaU1.2 sensor” value is listed as “Low but measurable activation”. In addition, in the experiment with PobR-DM [1], the “response of the whole cell 4HB biosensor” value is “did not show any response”. Besides, the Ki on UbiC (inhibitor of UbiC) is over 3 mM. Also, the “affinity weaker / Kp higher than 4HB” value at UbiC (product inhibition of UbiC) was 1000 fold.

Regarding `Oc1ccccc1O` [catechol], the “activation of the PcaU1.2 sensor” value in the experiment with PcaU1.2 is given as “a signal that was an appreciable fraction of PCA response”.

Regarding `O=[N+]([O-])c1ccc(O)cc1` [p-nitrophenol], the “response of the PobR-DM sensor in E. coli” value in the experiment on PobR-DM [2] is “does not respond”.

In the case of `O=C(O)c1ccc(O)c(O)c1` [protocatechuate, 3,4-dihydroxybenzoate], the “response of the PobR-DM sensor in E. coli” value in the experiment with PobR-DM [2] was “very weakly responds”.
